Data from patent US20260097115A1 (priority 2023, published 2026).

Tests used:
Assay type in all cases: cell-based, human
[1] = test system: HLA-II complexes (HLA-DR, HLA-DP, HLA-DQ) of A549/ATC cells
[2] = test system: HLA-II complexes of A549/ATC and HEK293T/ATC cells
[3] = test system: HLA-II complexes (HLA-DR, HLA-DP, HLA-DQ) of HEK293T/ATC cells

Sequence | Unique A549 peptides in segment [1] | Unique peptides in segment [2] | Unique HEK293T peptides in segment [3] | Detection as HLA-II peptide by LC-MS/MS [3]
MDLFMRIFTIGTVTLKQGEIKDATPSDF [ORF3a: 1-28] | 1 | 4 | 4 | 
MDGSIIQFPNTYLEGSVR [nsp4: 194-211] | 0 | 5 | 5 | 
TVEKGIYQTSNERVQPTES [S:307-325] | 3 | 4 | 3 | 
TGPEAGLPYGANKDG [N: 115-129] | 1 | 1 | 0 | 
TPTWRVYSTGSNVFQTRAG [S:630-648] | 1 | 3 | 2 | 
DSFVIRGDEVRQIAPG [S:398-413] | 0 | 1 | 1 | 
ICASYQTQTNSPRRA [S:670-684] | 0 | 1 | 1 | 
MAGNGGDAALALLLLDRLNQLESKMSGKGQQQQGQTVT [N: 210-247] | 21 | 21 | 0 | 
SPDAVTAYNGYLTSSSK [nsp3: 661-677] | 0 | 1 | 1 | 
AALQIPFAMQMAYRENGIG [S:892-910] | 0 | 11 | 11 | 
TDHSSSSDNIALLVQ [M: 208-222] | 2 | 2 | 2 | 
ATREASVYAWNRKRISN [S:344-360] | 0 | 3 | 3 | 
IAQFAPSASAFFG [N: 304-316] | 1 | 1 | 0 | 
DGSEDNQTTTIQTIVE [nsp3: 174-189] | 0 | 1 | 1 | 
SVASQSIIAYTMSLGAEN [S:686-703] | 0 | 3 | 3 | 
TEIYQAGSTPCNGVEG [S:470-485] | 0 | 2 | 2 | 
RIGMEVTPSGTWLTYTGAIKLDDKDPNEKDQVILLNKHIDAYKTEPP [N: 319-365] | 36 | 44 | 17 | 
YIINLIIKNLSKS [ORF6: 31-43] | 1 | 1 | 0 | 
EPQIITTDNTFVSGN [S:1111-1125] | 1 | 1 | 0 | 
MDPKISEMHPALRLVDPQIQLAVTRMENA [ORF9b: 1-29] | 0 | 8 | 8 | 
ALHFLLFFRALPKS [ORF3a.iORF1: 28-41] | 0 | 1 | 1 | observed in the same fraction (fxn 3) in two biological replicates
NVPLHGTILTRPLLESELVIGAVILRGHLRIAGHHLGRCDIKDLPKEITVA [M: 121-171] | 16 | 34 | 18 | 
INITRFQTLLALHRSYL [S: 233-249] | 0 | 1 | 1 | 
TQQLIRAAEIRASANLA [S:1009-1025] | 0 | 14 | 14 | 
CSNLLLQYGSFCTQLNRALTGIAVEQDKNTQE [S:749-780] | 0 | 10 | 10 | 
TQLPPAYTNSFTRGVYYPDKVERSSVLHSTQDLFLPFFS [S: 22-60] | 13 | 13 | 0 | 
KKKADETQALPQRQKKQQTVTLLPAADLDDESKQLQQSMSSADSTQA [N: 373-419] | 5 | 69 | 69 | 
SDNGPQNQRNAPRITE [N: 2-17] | 1 | 1 | 0 | 
VGPKVYPIILRLGSPLS [ORF9b: 37-53] | 0 | 2 | 2 | 
